# Source: article PMC7916972, “Therapeutic Targeting of Fumaryl Acetoacetate Hydrolase in Hereditary Tyrosinemia Type I” (International Journal of Molecular Sciences, 2021)
# Key:
# [1] = target: T1, Fumarylacetoacetate hydrolase (WT FAH) (Homo sapiens, UniProt P16930); assay: STD NMR titration; methyl-TROSY M140 shift; assay type: binding
# T1 sequence (P16930 2-419): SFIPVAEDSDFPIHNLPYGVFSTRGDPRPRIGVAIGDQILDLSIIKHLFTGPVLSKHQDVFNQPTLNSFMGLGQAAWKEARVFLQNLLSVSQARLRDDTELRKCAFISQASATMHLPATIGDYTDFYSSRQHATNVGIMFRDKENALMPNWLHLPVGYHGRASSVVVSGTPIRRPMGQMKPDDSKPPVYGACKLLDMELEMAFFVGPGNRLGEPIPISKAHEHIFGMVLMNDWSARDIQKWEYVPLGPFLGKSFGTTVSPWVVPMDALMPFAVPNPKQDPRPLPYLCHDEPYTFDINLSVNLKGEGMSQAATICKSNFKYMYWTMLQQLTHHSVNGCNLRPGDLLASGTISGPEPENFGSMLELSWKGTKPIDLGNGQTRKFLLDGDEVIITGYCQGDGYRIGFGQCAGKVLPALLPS
# [2] = target: T1, Fumarylacetoacetate hydrolase (WT FAH); assay: STD NMR titration; methyl-TROSY M140 splitting; assay type: binding
Kd [1],Kd [2],Structure (SMILES)
21 µM,,Cc1ccnc(NC(=O)c2ccc(C)c(N)c2)c1 [G2.HT1.4]
,235 µM,C#Cc1ccncc1 [G1.30.B10]
20 µM,,C(#Cc1ccncc1)c1ccncc1 [G2.HT1.1]
